# Reference: patent US10017507B2, “Diaza-benzofluoranthrene compounds” (HARBIN PHARMACEUTICAL GROUP CO., LTD. GENERAL …, priority 2015, dated 2018)
# Molecular target: T1, PDE1A (Homo sapiens, UniProt P54750)
# T1 construct: purchased SignalChem
# Assay: In vitro detection of phosphodiesterase (PDE): PDE1A enzyme activity by fluorescence polarization immunoassay
# Type: biochemical
# Settings: human-derived enzyme, cAMP or cGMP substrate; read-out: IC50s for PDE1
# Method: Test 1: In Vitro Detection of Phosphodiesterase (PDE)
# the enzyme activity of PDE1A was determined by detecting the production of AMP/GMP by fluorescence polarization immunoassay, wherein AlexaFluor 633 labeled AMP/GMP was used to replace AMP/GMP to bind with the antibody.
# Reaction buffer: 10 mM Tris-HCl, pH 7.5, 5 mM magnesium chloride, 0.01% Brij 35, 1 mM DTT and 1% DMSO;
# Enzyme substrate: […] cAMP or cGMP (Ca^2+-calmodulin acts as a cofactor of PDE1A)
# Detection reagent: Transcreener® AMP2/GMP2 antibody; AMP2/GMP2 AlexaFluor 633 tracer.
# Experimental Procedure and Method:
# 1. Human-derived enzyme (commercially available from SignalChem) to be tested and substrate were diluted with freshly prepared reaction buffer;
# 2. The enzyme solution (with a concentration of 3 pM) was added to the holes of the microplates;
# 3. A series of solutions of the compounds in 100% DMSO (with the desired concentrations) were added to the holes containing the enzyme solution by Echo550, and then the microplates were incubated for 10 minutes at room temperature;
# 4. The substrate solution was added to the holes containing the enzyme and compounds to start the reaction;
# 5. The microplates were incubated for 1 hour under room temperature and vibration;
# 6. The detection mixture (tracer and antibody in stop buffer) was added to stop the enzyme reaction, and the microplates were incubated for 90 minutes under vibration;
# 7. The equipment EnVision (PerkinElmer), Cy5 FP Ex FP 620, Em S-pol 688/P-pol 688, FP mirror D658fp/D688 was used to detect the reaction mixture, and Ex/Em 620/688 was used to detect the fluorescence polarization.
# In the Excel table, the enzyme activity corresponding to the FP signal was found on the AMP/GMP standard curve by reference to the DMSO negative control, and then was converted to product concentration (nM). GraphPad Prism was used to analyze and calculate the IC50 values.
row,Structure (SMILES),IC50
1,"CC[C@@]12C=C(c3nc(C)c(C(=O)NC)o3)n3c4c(c5ccccc53)CCN(CCC1)[C@H]42 [Example 64, 2-((4^1S,13aS)-13a-ethyl-2,3,4^1,5,6,13a-hexahydro-1H-indolo[3,2,1-de]pyrido[3,2,1-ij][1,5]naphthyridin-12-yl)-N,4-dimethyloxazole-5-carboxamide]",≤ 1 µM
2,"CC[C@@]12C=C(c3noc(C(C)(C)O)n3)n3c4c(c5ccccc53)CCN(CCC1)[C@H]42 [Example 25, 2-(3-((4^1S,13aS)-13a-ethyl-2,3,4^1,5,6,13a-hexahydro-1H-indolo[3,2,1-de]pyrido[3,2,1-ij][1,5]naphthyridin-12-yl)-1,2,4-oxadiazol-5-yl)propan-2-ol]",1 to 20 µM
3,"CC[C@@]12C=C(C3=N[C@@H](C)CO3)n3c4c(c5ccccc53)CCN(CCC1)[C@H]42 [Example 38, (S)-2-((4^1S,13aS)-13a-ethyl-2,3,4^1,5,6,13a-hexahydro-1H-indolo[3,2,1-de]pyrido[3,2,1-ij][1,5]naphthyridin-12-yl)-4-methyl-4,5-dihydrooxazole]",20 to 100 µM
4,"CCOC(=O)/C=C/C1=C[C@]2(CC)CCCN3CCc4c(n1c1ccccc41)[C@@H]32 [Example 6, (E)-ethyl-3-((4^1S,13aS)-13a-ethyl-2,3,4^1,5,6,13a-hexahydro-1H-indolo[3,2,1-de]pyrido[3,2,1-ij][1,5]naphthyridin-12-yl)acrylate]",1 to 20 µM
5,"CC[C@@]12C=C(c3cncc(C)n3)n3c4c(c5ccccc53)CCN(CCC1)[C@H]42 [Example 10, (4^1S,13aS)-13a-ethyl-12-(6-methylpyrazin-2-yl)-2,3,4^1,5,6,13a-hexahydro-1H-indolo[3,2,1-de]pyrido[3,2,1-ij][1,5]naphthyridine]",1 to 20 µM
6,"CC[C@@]12C=C(c3nc(C)ns3)n3c4c(c5ccccc53)CCN(CCC1)[C@H]42 [Example 39, 5-((4^1S,13aS)-13a-ethyl-2,3,4^1,5,6,13a-hexahydro-1H-indolo[3,2,1-de]pyrido[3,2,1-ij][1,5]naphthyridin-12-yl)-3-methyl-1,2,4-thiadiazole]",1 to 20 µM
7,"CC[C@@]12C=C(c3nc(-c4ccncc4)no3)n3c4c(c5ccccc53)CCN(CCC1)[C@H]42 [Example 31, 5-((4^1S,13aS)-13a-ethyl-2,3,4^1,5,6,13a-hexahydro-1H-indolo[3,2,1-de]pyrido[3,2,1-ij][1,5]naphthyridin-12-yl)-3-(pyridin-4-yl)-1,2,4-oxadiazole]",1 to 20 µM
8,"CC[C@@]12C=C(c3nc(C)c(C(C)C)o3)n3c4c(c5ccccc53)CCN(CCC1)[C@H]42 [Example 54, 2-((4^1S,13aS)-13a-ethyl-2,3,4^1,5,6,13a-hexahydro-1H-indolo[3,2,1-de]pyrido[3,2,1-ij][1,5]naphthyridin-12-yl)-5-isopropyl-4-methyloxazole]",1 to 20 µM
9,"CC[C@@]12C=C(c3nc(C)c(C(C)(C)O)o3)n3c4c(c5ccccc53)CCN(CCC1)[C@H]42 [Example 60, 2-(2-((4^1S,13aS)-13a-ethyl-2,3,4^1,5,6,13a-hexahydro-1H-indolo[3,2,1-de]pyrido[3,2,1-ij][1,5]naphthyridin-12-yl)-4-methyloxazol-5-yl)propan-2-ol]",1 to 20 µM
10,"CC[C@@]12C=C(c3cc(C)no3)n3c4c(c5ccccc53)CCN(CCC1)[C@H]42 [Example 47, 5-((4^1S,13aS)-13a-ethyl-2,3,4^1,5,6,13a-hexahydro-1H-indolo[3,2,1-de]pyrido[3,2,1-ij][1,5]naphthyridin-12-yl)-3-methylisoxazole]",1 to 20 µM
11,"CC[C@@]12C=C(c3nc(C)c(C)o3)n3c4c(c5ccccc53)CCN(CCC1)[C@H]42 [Example 52, 2-((4^1S,13aS)-13a-ethyl-2,3,4^1,5,6,13a-hexahydro-1H-indolo[3,2,1-de]pyrido[3,2,1-ij][1,5]naphthyridin-12-yl)-4,5-dimethyloxazole]",≤ 1 µM
12,"CC[C@@]12C=C(c3nc(C)c(C)o3)n3c4c(c5c(S(=O)(=O)NC)cccc53)CCN(CCC1)[C@H]42 [Example 73, (4^1S,13aS)-12-(4,5-dimethyloxazol-2-yl)-13a-ethyl-N-methyl-2,3,4^1,5,6,13a-hexahydro-1H-indolo[3,2,1-de]pyrido[3,2,1-ij][1,5]naphthyridin-7-sulfonamide]",1 to 20 µM
13,"CC[C@@]12C=C(c3noc(C(F)(F)F)n3)n3c4c(c5ccccc53)CCN(CCC1)[C@H]42 [Example 21, 3-((4^1S,13aS)-13a-ethyl-2,3,4^1,5,6,13a-hexahydro-1H-indolo[3,2,1-de]pyrido[3,2,1-ij][1,5]naphthyridin-12-yl)-5-trifluoromethyl-1,2,4-oxadiazole]",> 100 µM
14,"CC[C@@]12C=C(c3ncccc3C)n3c4c(c5ccccc53)CCN(CCC1)[C@H]42 [Example 13, (4^1S,13aS)-13a-ethyl-12-(3-methylpyridin-2-yl)-2,3,4^1,5,6,13a-hexahydro-1H-indolo[3,2,1-de]pyrido[3,2,1-ij][1,5]naphthyridine]",20 to 100 µM
15,"CC[C@@]12C=C(c3csc(N)n3)n3c4c(c5ccccc53)CCN(CCC1)[C@H]42 [Example 43, 4-((4^1S,13aS)-13a-ethyl-2,3,4^1,5,6,13a-hexahydro-1H-indolo[3,2,1-de]pyrido[3,2,1-ij][1,5]naphthyridin-12-yl)-thiazole-2-amine]",20 to 100 µM
16,"CC[C@@]12C=C(c3nc(C)co3)n3c4c(c5ccccc53)CCN(CCC1)[C@H]42 [Example 50, 2-((4^1S,13aS)-13a-ethyl-2,3,4^1,5,6,13a-hexahydro-1H-indolo[3,2,1-de]pyrido[3,2,1-ij][1,5]naphthyridin-12-yl)-4-methyloxazole]",1 to 20 µM
17,"CC[C@@]12C=C(c3noc(C4CCN(C(=O)OC(C)(C)C)CC4)n3)n3c4c(c5ccccc53)CCN(CCC1)[C@H]42 [Example 26, Tert-butyl-4-(3-((4^1S,13aS)-13a-ethyl-2,3,4^1,5,6,13a-hexahydro-1H-indolo[3,2,1-de]pyrido[3,2,1-ij][1,5]naphthyridin-12-yl)-1,2,4-oxadiazol-5-yl)piperidine-1-carboxylate]",> 100 µM
18,"CC[C@@]12C=C(c3nc(C(F)(F)F)no3)n3c4c(c5ccccc53)CCN(CCC1)[C@H]42 [Example 22, 5-((4^1S,13aS)-13a-ethyl-2,3,4^1,5,6,13a-hexahydro-1H-indolo[3,2,1-de]pyrido[3,2,1-ij][1,5]naphthyridin-12-yl)-3-trifluoromethyl-1,2,4-oxadiazole]",20 to 100 µM
19,"CC[C@@]12C=C(c3nc(C(F)F)no3)n3c4c(c5ccccc53)CCN(CCC1)[C@H]42 [Example 36, 3-Difluoromethyl-5-((4^1S,13aS)-13a-ethyl-2,3,4^1,5,6,13a-hexahydro-1H-indolo[3,2,1-de]pyrido[3,2,1-ij][1,5]naphthyridin-12-yl)-1,2,4-oxadiazole]",20 to 100 µM
20,"CC[C@@]12C=C(c3ccno3)n3c4c(c5ccccc53)CCN(CCC1)[C@H]42 [Example 45, 5-((4^1S,13aS)-13a-ethyl-2,3,4^1,5,6,13a-hexahydro-1H-indolo[3,2,1-de]pyrido[3,2,1-ij][1,5]naphthyridin-12-yl)isoxazole]",20 to 100 µM
21,"CC[C@@]12C=C(c3cnc(C)c(C)n3)n3c4c(c5ccccc53)CCN(CCC1)[C@H]42 [Example 14, (4^1S,13aS)-12-(5,6-dimethylpyrazin-2-yl)-13a-ethyl-2,3,4^1,5,6,13a-hexahydro-1H-indolo[3,2,1-de]pyrido[3,2,1-ij][1,5]naphthyridine]",1 to 20 µM
22,"CC[C@@]12C=C(c3nc(C(C)C)c(C)o3)n3c4c(c5ccccc53)CCN(CCC1)[C@H]42 [Example 57, 2-((4^1S,13aS)-13a-ethyl-2,3,4^1,5,6,13a-hexahydro-1H-indolo[3,2,1-de]pyrido[3,2,1-ij][1,5]naphthyridin-12-yl)-4-isopropyl-5-methyloxazole]",≤ 1 µM
23,"CC[C@@]12C=C(c3nc(C)no3)n3c4c(c5ccc(S(=O)(=O)N(C)C)cc53)CCN(CCC1)[C@H]42 [Example 77, (4^1S,13aS)-13a-ethyl-N,N-dimethyl-12-(3-methyl-1,2,4-oxadiazol-5-yl)-2,3,4^1,5,6,13a-hexahydro-1H-indolo[3,2,1-de]pyrido[3,2,1-ij][1,5]naphthyridin-9-sulfonamide]",20 to 100 µM
24,"CCCC(O)(CCC)C1=C[C@]2(CC)CCCN3CCc4c(n1c1ccccc41)[C@@H]32 [Example 49, 4-((4^1S,13aS)-13a-ethyl-2,3,4^1,5,6,13a-hexahydro-1H-indolo[3,2,1-de]pyrido[3,2,1-ij][1,5]naphthyridin-12-yl) heptan-4-ol]",> 100 µM
25,"CC[C@@]12C=C(/C(C#N)=N/OC)n3c4c(c5ccccc53)CCN(CCC1)[C@H]42 [Example 2, (4^1S,13aS,Z)-13a-ethyl-N-methoxyl-2,3,4^1,5,6,13a-hexahydro-1H-indolo[3,2,1-de]pyrido[3,2,1-ij][1,5]naphthyridine-12-carbimidoyl cyanide]",1 to 20 µM
